Results as given in a melting point compilation (Tetko et al.; mined from patent text by program, amines drawn as free bases though some values may be those of a salt).

| SMILES | melting point [°C] |
| --- | --- |
| CC(=O)N1CCC(C(=NN)c2ccc(F)cc2F)CC1 | 139 to 142 |
| CCOc1ccc(C=[N+]([O-])C2CCCCC2)cc1 | 124 |
| COC(=O)OC1CCC2C3CCC4=CC(=O)CCC4(C)C3CCC12C (configuration not stated) | 140 to 141 |
| CC(C)Nn1nnnc1S | 92 to 95 |
| CC(C)(C)OC(=O)NCCc1ccc(N)cc1 | 71 to 73 |
| COc1cc(OC)cc(-c2nc[nH]c2-c2ccc(OC)c(N)c2F)c1 | 118 to 120 |
| O=C(O)[C@@H]1CCCN1S(=O)(=O)c1cc(Cl)cc(Cl)c1O | 107 |
| CC12CC(F)C3C4CCC(=O)C=C4C=CC3C1CCC2=O (configuration not stated) | 198 |
| CCOc1cc(C)ccc1C1CCN(CCCCNC(=O)c2ccc3oc(-c4ccc(Cl)cc4)cc3c2)CC1 | 145 to 158 |
| CC1Cc2cc3c(cc2C(c2ccc([N+](=O)[O-])cc2)=NN1C(=O)CCl)OCO3 (configuration not stated) | 158 to 160 |
| O=c1c(Br)c[nH]c2c([N+](=O)[O-])cccc12 | 279 to 282 |
| C[C@@H]1N=C(c2ccccc2F)c2c(ccc(N)c2Cl)N(C)C1=O | 222 to 226 |
| CNC(=O)c1ncc2[nH]c3ccc(N)cc3c2c1C | 281 to 285 |
| COc1ccc(-n2nc(C(C)(C)C)cc2NC(=O)c2cccc3cc(Oc4cc(Cl)ncn4)ccc23)cc1 | 163 to 164 |
| COc1cc(C)c(S(C)=O)cc1O (configuration not stated) | 148 to 150 |
| CCCOCCOc1ccc(COc2ccc3c(c2)C=C(C(=O)Nc2ccc(CN(C)C4CCOCC4)cc2)CCS3(=O)=O)cc1OCC | 146 to 147 |
| COCc1c(C=NO)ncc2[nH]c3cccc(Cc4ccc(Cl)cc4)c3c12 | 224 to 228 |
| CC(O)=CC(N)=NC(C)(C)C | 119 to 125 |
| C#Cc1cc(Nc2ncnc3cnc(F)cc23)ccc1F | 223 to 226 |
| O=C[C@H]1CC[C@H](c2ccc(F)cc2)CC1 | < 30 |
| CC(C)(C)C(Cl)=NNc1cc(Cl)c(Cl)cc1[N+](=O)[O-] | 99 to 100 |

| SMILES | melting point [°C] |
| --- | --- |
| CC(=O)c1cc2c(cc1NC(=O)c1sccc1S(=O)(=O)Nc1onc(C)c1Cl)OCO2 | 191 to 193 |
| Cc1ccc(S(=O)(=O)Cl)c2c1CCN(C(=O)C(F)(F)F)C2 | 152 to 153 |
| CC(=O)C1C(Cl)CC2C3CCC4CC(O)C(Cl)CC4(C)C3C(=O)CC21C (configuration not stated) | 192 to 194 |
| COc1cc2c(c(OC)c1OC)-c1ccc(O)cc1[C@@H](NC(C)=O)CC2 | 157 |
| COc1ccc(-c2cn(C)cc(-c3ccc(OC)c(OC)c3)c2=O)cc1OC | 182 to 184 |
| COC(=O)C=C1C(=O)N(C)C(=O)N1C | 49.5 |
| CCOC(=O)c1cn(CC)c2nn(C)cc2c1=O | 170 to 172 |
| Cc1oc(-c2cc(C(C)(C)C)c(O)c(C(C)(C)C)c2)nc1CC(=O)O | 205 to 206 |
| C[C@H](NC(=O)OC(C)(C)C)C(=O)N1CCC[C@H]1C(=O)O | 155 to 157 |
| COc1ccnc(C(C)S(=O)c2nc3cc(OC(F)(F)C(F)F)ccc3[nH]2)c1 (configuration not stated) | 156 to 157 |
| CCOC(=O)c1nc2sc(C(C)C)cc2c(=O)o1 | 87.5 to 88.5 |
| NC(=O)c1nc(Cl)n2c1CN=C(c1ccccc1Cl)c1cc(Cl)ccc1-2 | 285 to 288 |
| CCOC(=O)c1cccn2cc(C(Cl)Cl)nc12 | 108 to 110 |
| CC(C)(C#N)Cc1ccc(-c2ccc(CC(C)(C)C#N)cc2)cc1 | 174 to 182 |
| CN(C)C=Cc1ccc(OC(F)(F)F)cc1[N+](=O)[O-] | 59 |
| CCCCc1nc(O)c(CC(=O)OCC)c(O)n1 | 260 |
| CCCSc1nc2ccc(Br)cc2c(=O)n1CCC | 65 to 67 |
| CCc1c(N)c(C(N)=O)nn1CCOC | 131 |
| CCS(=O)(=O)CCON=Cc1nn(-c2c(Cl)cc(C(F)(F)F)cc2Cl)c(N)c1S(C)=O (configuration not stated) | 144 to 148 |
| COCCN(C1CCS(=O)(=O)C1)S(=O)(=O)c1ccc(Nc2nccc(Nc3ccc(F)cc3)n2)cc1 (configuration not stated) | 150 |

The next lines start with the values.

| melting point [°C] | SMILES |
| --- | --- |
| 173 to 181 | COc1ccc2ccc(NC(=O)c3c[nH]c4c3C(=O)CCC4)nc2n1 |
| 84 to 85 | CCC(Oc1ccccc1)c1nnc(NC(=O)N(C)CC(OC)OC)s1 (configuration not stated) |
| 182 to 183 | CC(=O)Nc1ccc(CN2CCC(C(c3ccccc3)c3ccccc3)CC2)cc1 |
| 78 to 80 | CCOC(=O)C1=C(COCCNC(=O)N2CCN(C)CC2)NC(C)=C(C(=O)OC)C1c1ccccc1Cl (configuration not stated) |
| 52 | CC(C)=CC(=O)Nc1ccccc1CCN1CCN(c2nsc3ccccc23)CC1 |
| 55 to 56 | COC(=O)c1cccc(-c2ccoc2C(F)F)c1 |
| 130 to 131 | CC=Cn1c(C)c(C)c2cnnc(NCc3ccccc3)c21 |
| 72 to 74 | CCCCC(OC(C)=O)c1cccc(COc2cc([N+](=O)[O-])cc3cccnc23)c1 (configuration not stated) |
| 148 to 149 | CC(C)Nc1cccnc1N1CCN(C(=O)c2ccc(C(=O)N3CCN(CCO)CC3)cc2)CC1 |
| 153 to 155 | COc1cc(C(=O)N2Cc3ccc(C(=O)NCc4ccc5c(c4)OCCO5)n3Cc3ccccc32)ccc1-c1ccccc1C |
| 187 to 189 | O=C(Cc1cccc2ccccc12)NCc1cccc2c1C(=O)N(C1CCC(=O)NC1=O)C2=O (configuration not stated) |
| 142 | O=C(O)CCSCSCC(C(=O)O)c1cccc(OCc2ccc3ccc(Cl)cc3n2)c1 (configuration not stated) |
| > 320 | CS(=O)(=O)Nc1ccc(-c2ccc(C(=O)O)c(=O)[nH]2)cc1 |
| 103 to 104 | CC(C(=O)O)c1ccc2c(c1)CCc1ccccc1S2 (configuration not stated) |
| 117 to 119 | CSc1ccc([C@@H](CC2CCCC2)C(=O)O)cc1Cl |
| 208 to 210 | FC(F)(F)c1ccc(C2=NN(C(=S)Nc3ccc(Cl)cc3)CC2c2ccccc2)cc1 (configuration not stated) |
| 78.5 to 82 | CNC(Cc1ccccc1NC(=O)C(C)(C)C)c1cccs1 (configuration not stated) |
| 206 to 208 | CC(=CN(C)C)C(=O)c1cccc(Cl)c1 |
| 148 to 154 | CCCN(CCCc1c[nH]c2ccc(Cl)cc12)C1COc2c(F)ccc(C(N)=O)c2C1 (configuration not stated) |

| melting point [°C] | SMILES |
| --- | --- |
| 232 to 234 | Cc1oc2c(C)c(C)c(N3C(=O)c4ccccc4C3=O)c(C)c2c1-c1ccc(C(C)C)cc1 |
| 113 to 117 | N#CCOc1ccc2cc(-c3csc(-c4ccccc4)n3)ccc2c1 |
| 97 to 98 | O=C(c1ccccc1)c1ccc(-c2nc(COc3cccc(CCCn4ccnc4)c3)co2)cc1 |
| 152 | CC(CO)N1c2ccccc2Sc2ccc(C(N)=S)cc21 (racemic) |
| 175 | CCC(CC)(CC(=O)Nc1cccc(OCc2ccc3cc(C)ccc3n2)c1)C(=O)O |
| 149 to 152 | Cc1cc(=O)oc2nn(Cc3ccc(Cl)cc3)c(C)c12 |
| 228 to 231 | CCc1cc2c(=O)c3cccc(C(=O)OC)c3n(Cc3ccc(-c4ccccc4-c4nnn[nH]4)cc3)c2s1 |
| 91 to 93 | CN(CCCNc1ccc(C#N)cc1)C1C2CCC1CN(Cc1ccccc1)C2 (configuration not stated) |
| 199 | CCOC(=O)C1C(=O)Nc2ccccc2SC1c1ccccc1 (configuration not stated) |
| 175 to 178 | COc1cc(OC(CCc2ccc(Cl)cc2)Cn2ccnc2)ccc1NC(C)=O (configuration not stated) |
| 177 | CC(=O)Oc1ccccc1-c1nn2cc(-c3ccccc3)nc2s1 |
| 121 | O=C(NCCN1CCC(O)(c2ccc(Cl)cc2)CC1)c1ccccc1Br |
| 144 | CC(C)c1cc(-c2ccc(F)c3ccccc23)nc(N(S(C)(=O)=O)S(C)(=O)=O)n1 |
| 141 | CCOC(=O)C(C)(C)NC(=O)c1ccc(S(=O)(=O)N2C(=O)C(NC)(c3ccccc3Cl)c3cc(Cl)ccc32)c(OC)c1 (configuration not stated) |
| 205 to 207 | C[C@H]1COC(=O)N1c1nc(-c2ccc(C#N)cc2)cs1 |
| 60 to 61 | CC(C)COC1=C(Cc2ccc(Cl)cc2)C(=O)CC(C)(C)C1 |
| 114 to 115 | CCCc1nc(Cl)c(C(=O)O)n1Cc1ccc(C2(C(=O)OCC)CC=CC2)s1 |
| 134 to 135 | COc1cc(CO)ccc1OCc1nc(-c2cccc([N+](=O)[O-])c2)oc1C |
| 96 to 98 | CCOC(=O)COc1ccc(Cn2c(-c3ccc(OC4CCCC4)cc3)c(C)c3cc(OCc4ccccc4)ccc32)cc1 |

| melting point [°C] | SMILES |
| --- | --- |
| 260 | CCCC(=O)Nc1n[nH]c2cc(Cl)c(-c3ccncc3)cc12 |
| 97 to 98 | N[C@@H](Cc1ccc(C(F)(F)F)cc1)[C@H](O)c1ccncc1 (racemic) |
| 87 to 88.5 | BrCc1cc(-c2ccccc2)cs1 |
| 142 to 145 | C=C(c1cc(Cl)ccc1N1CCCCC1)C(C(N)=O)c1ccc(C(=O)OCC)cc1 (configuration not stated) |
| 111 to 115 | CCOC(=O)Cc1nn(Cc2nc(-c3ccccc3C(F)(F)F)no2)c(=O)c2ccccc12 |
| 119 to 121 | O=C1C(CCO)Oc2ccc(-c3ccccc3)cc2N1Cc1cccc(Cl)c1 (configuration not stated) |
| 186 to 188 | O=C(O)[C@@H]1CC[C@H](n2nc(-c3c(-c4ccccc4)nn4ccccc34)ccc2=O)C(=O)C1 (relative stereo) |
| 283 to 284 | O=C(O)c1ccc(-c2nc(-c3ccc(Cl)s3)cs2)cc1 |
| 165 to 168 | C[C@@H](NC(=O)[C@@H](NC(=O)[C@H](C/C=C/c1ccc(-c2ccccc2)c(F)c1)CC(=O)OC(C)(C)C)C(C)(C)C)c1ccccc1 |
| 186 to 188 | Cc1cc(S(=O)(=O)c2ccc(O)cc2)ccc1C1CCN(C)C1 (configuration not stated) |
| 110 to 112 | CS(=O)(=O)c1ncc(-c2ccccc2)c(C(F)(F)F)n1 |
| 161 to 163 | O=c1nc(N2CCN(Cc3ccccc3)CC2)sc2c([N+](=O)[O-])cc(C(F)(F)F)cc12 |
| 140 to 144 | CC1(O)CCN(C(=O)C(c2ccccc2)n2cnc3[nH]ncc3c2=S)CC1 (configuration not stated) |
| 102 to 106 | Cc1cc(-c2cc3cc(OCCNC[C@H](O)COc4ccccc4Cl)ccc3o2)no1 |
| 258 to 261 | Cc1oc2c(NC(=O)c3c(Cl)ccc(CO)c3Cl)cccc2c1C |
| 171 to 172 | CC(C)(C)OC(=O)/C=C/c1ccc(C(=C2CCCCCCC2)c2ccc(O)cc2)cc1 |
| 190 to 192 | CC(C)c1ccc(-c2c(Cl)c(CCl)nc3sc4c(c23)CCN(Cc2ccccc2)C4)cc1 |
| 118 to 119 | COc1nc(-c2c(F)cccc2F)nn1-c1ccccc1C(F)(F)F |
